Key:
[1] = test system: CD19+CD11b+ and CD19+CD11b− cardiac lymphocytes; experiment: Transcriptional profiling (RNAseq, KEGG) of sorted cardiac B lymphocytes; assay type: in vivo, mouse; details: DTR+PFD hearts vs naïve
From the text: To gain insight into the mechanism(s) responsible for the immunomodulatory effects of Pirfenidone, we performed transcriptional profiling on CD19+CD11b+ and CD19+CD11b− cardiac lymphocytes that were FACS sorted from naïve, DT-injured mice fed normal chow, and DT-injured mice treated with Pirfenidone chow. […]
We performed transcriptional profiling of cardiac lymphocytes that were isolated from naïve and DTR injured hearts in the presence and absence of Pirfenidone. […] Single-end, 50 bp reads were obtained on an Illumina HiSeq 3000 and aligned to the IIlumina iGenomes GRCm38_Ensembl release of the mouse transcriptome using Tophat2.1(41), yielding an average of 1.8×107 aligned reads per sample. Gene-level quantitation was performed using HTSeq 2(42). mRNAs were included in downstream analyses if present in all biological replicates in any of the 6 experimental groups (CD19+CD11b+ and CD19+CD11b− from WT, DT and DT+PFD) at an abundance of at least 1 read per million. […] KEGG pathways within the following 3 categories were analyzed: signal transduction (3.2), signaling molecules and interactions (3.3), and immune system (5.1).

[2] = test system: Peritoneal derived inflammatory cells; experiment: In vitro immunomodulatory effect of tested PEG compounds (CD86 on CD19+ cells, LPS); assay type: cell-based, mouse; details: LPS 100 ng/ml, 24 h, various concentrations
Protocol: Peritoneal derived inflammatory cells were collected on day for post intraperitoneal injection of Thyoglicollate. Cells were cultured for 24 h in baseline condition (control), in the presence of LPS 100 ng/ml (LPS) or in the presence of LPS 100 ng/ml and various concentrations of different forms of Pegylated Pirfenidone (named C2 and C3 in FIG. 11A and C4 to C6 in FIG. 11B)). After the 24 h in culture cells were collected and analyzed via flow cytometry to assess the expression of CD86 on CD19+ cells (B lymphocytes). […] FIG. 11C reports the molecular weights of the tested forms of PEGylated Pirfenidone and the molecular weight (MW) ration between the tested compound and Pirfenidone).

## Cc1ccc(=O)n(-c2ccccc2)c1 [Pirfenidone, 5 methyl-1-phenyl-2-[H] pyridone]
[1]; 6 pathways
  KEGG pathways enriched after DT injury in CD19+CD11b+ lymphocytes: not activated
[1]; with the exception of the hematopoietic cell lineage pathway
  KEGG pathways enriched after DT injury in CD19+CD11b− lymphocytes: none of these pathways was significantly enriched
[2]
  expression of CD86 on CD19+ cells: reduced

Source: patent US12365651B2, “Use of pirfenidone and derivatives for modulation of B lymphocyte activity and organ protection from acute tissue damage” (Washington University, priority 2017, dated 2025)
